Literature values as cited in US20100075916A1, “SUBSTITUTED QUINAZOLINE INHIBITORS OF GROWTH FACTOR RECEPTOR TYROSINE KINASES” (AUSPEX PHARMACEUTICALS, INC., priority 2008, published 2010).

How the values were obtained:
[1] = humans
[2] = vandetanib administration

elimination halflife [1]: approximately 120 hours
volume of distribution [1]: large volume of distribution
lag time before the drug is detectable in plasma ([1]; after oral administration): 0.801 h
Ka (absorption) ([1]; oral administration): 0.476 h⁻¹
Structure (SMILES): COc1cc2c(Nc3ccc(Br)cc3F)ncnc2cc1OCC1CCN(C)CC1 [Vandetanib, N-(4-bromo-2-fluoro-phenyl)-6-methoxy-7-[(1-methyl-4-piperidyl)methoxy]quinazolin-4-amine]
common side effects [2]: rash, diarrhea, QTc prolongation, hypertension, and neutropenia
